Measured values published in paper PMC6683083, “Lupin Peptide T9 (GQEQSHQDEGVIVR) Modulates the Mutant PCSK9^D374Y Pathway: in vitro Characterization of its Dual Hypocholesterolemic Behavior” (Nutrients, 2019).
Entries after “also recorded” stand apart in the source; their conditions may differ.

How the values were obtained:
HMGCoAR = molecular target: T1, HMGCoAR (Homo sapiens, UniProt P04035); assay: In vitro HMGCoAR activity assay (Sigma kit); assay type: biochemical; conditions: 10^−5 to 10^−3 M; 37 °C; NADPH oxidation, absorbance at 340 nm, 0 and 10 min; means ± SD
T1 construct: purchased Sigma (Sigma-Aldrich, St. Louis, MO, USA)
T1 sequence (P04035 426-888 limits assumed): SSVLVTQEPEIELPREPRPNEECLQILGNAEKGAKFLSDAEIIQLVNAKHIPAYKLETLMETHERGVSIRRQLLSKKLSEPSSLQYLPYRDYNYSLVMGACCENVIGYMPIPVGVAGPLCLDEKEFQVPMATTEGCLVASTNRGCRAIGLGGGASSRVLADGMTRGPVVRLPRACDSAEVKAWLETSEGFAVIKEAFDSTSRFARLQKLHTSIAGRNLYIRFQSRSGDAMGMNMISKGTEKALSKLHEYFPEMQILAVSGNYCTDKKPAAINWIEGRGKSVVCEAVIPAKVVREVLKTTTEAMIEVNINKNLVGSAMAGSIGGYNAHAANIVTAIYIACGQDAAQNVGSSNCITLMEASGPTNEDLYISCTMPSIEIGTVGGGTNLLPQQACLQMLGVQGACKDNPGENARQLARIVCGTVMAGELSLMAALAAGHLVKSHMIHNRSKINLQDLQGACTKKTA
Method: The assay buffer, NADPH, substrate solution, and HMGCoAR were provided in the HMGCoAR Assay Kit (Sigma). The experiments were carried out as previously described. See Supplementary Materials for further details.
In vitro experiments were performed in order to confirm the in silico study according to which T9 was a potential inhibitor of the HMGCoAR activity. Peptide concentrations ranging from 10^−5 to 10^−3 M were tested.
Brief description of material and methods
Dulbecco’s modified Eagle’s medium (DMEM), stable L-glutamine, fetal bovine serum (FBS), phosphate buffered saline (PBS), penicillin/streptomycin, chemiluminescent reagent, and 96-well plates were purchased from Euroclone (Milan, Italy). […]
The assay buffer, NADPH, substrate solution, and HMGCoAR were provided in the HMGCoAR Assay Kit (Sigma). […] The absorbance at time 0 and 10 min were recorded. The HMGCoAR-dependent oxidation of NADPH and the inhibition properties of lupin peptides were measured by the absorbance reduction at 340 nm read by a microplate reader […]
Transfected HepG2 cells (1.5 × 10^5 cells/well) were treated with 100 μM T9 for 24 h. […] After centrifugation at 16,060 g for 15 min at 4 °C, the supernatant was recovered and total proteins were quantified by the Bradford method. […]

[1] = system: human intestinal Caco-2 cells; conditions: human intestinal Caco-2 cells / enterocytes; ref [13]; cited from earlier work
From the text: A previous study has shown that T9 impairs the protein–protein interaction between mutant D374Y Proprotein Convertase Subtilisin/Kexin 9 (PCSK9^D374Y) and the low-density lipoprotein receptor (LDLR), thus exerting a hypocholesterolemic effect. […] The present ... || GQEQSHQDEGVIVR (T9) is a peptide, deriving from the hydrolysis of β-conglutin with trypsin, showing a pI of 4.3, a hydrophobicity value of 25.97 Kcal mol^−1, and a net charge of −2 at pH 7.0. Its 14-aminoacids sequence comprises a polar negatively charged N-terminal, containing a glutamate residue, and a nonpolar positively charged C-terminal, containing an arginine residue. […] Two previous in silico studies have predicted the potential ...

intestinal peptidases = conditions: ref [13]; cited from earlier work
From the text: GQEQSHQDEGVIVR (T9) is a peptide, deriving from the hydrolysis of β-conglutin with trypsin, showing a pI of 4.3, a hydrophobicity value of 25.97 Kcal mol^−1, and a net charge of −2 at pH 7.0. Its 14-aminoacids sequence comprises a polar negatively charged N-terminal, containing a glutamate residue, and a nonpolar positively charged C-terminal, containing an arginine residue. […] Two previous in silico studies have predicted the potential ...

IC50 (HMGCoAR): 99.5 ± 0.56 µM
Compound: CC[C@H](C)[C@H](NC(=O)[C@@H](NC(=O)CNC(=O)[C@H](CCC(=O)O)NC(=O)[C@H](CC(=O)O)NC(=O)[C@H](CCC(N)=O)NC(=O)[C@H](Cc1cnc[nH]1)NC(=O)[C@H](CO)NC(=O)[C@H](CCC(N)=O)NC(=O)[C@H](CCC(=O)O)NC(=O)[C@H](CCC(N)=O)NC(=O)CN)C(C)C)C(=O)N[C@H](C(=O)N[C@@H](CCCNC(=N)N)C(=O)O)C(C)C [T9]
intestinal absorption (in words) [1]: absorbed in human intestinal Caco-2 cells; also recorded: absorbed by enterocytes | stability to metabolic degradation operated by intestinal peptidases (in words) (intestinal peptidases): stable to the metabolic degradation operated by intestinal peptidases
